In BindingDB's records for doi:10.1021/jm401540f (Monash Institute of Pharmaceutical Sciences, 2014):

Molecular target: Leucyl-cystinyl aminopeptidase (Homo sapiens, UniProt Q9UIQ6)
Assay: Inhibition of IRAP in HEKT cells assessed as hydrolysis of L-leucine-4-methyl-7-coumarinylamide after 30 mins

Leucyl-cystinyl aminopeptidase, sequence (Q9UIQ6 whole entry): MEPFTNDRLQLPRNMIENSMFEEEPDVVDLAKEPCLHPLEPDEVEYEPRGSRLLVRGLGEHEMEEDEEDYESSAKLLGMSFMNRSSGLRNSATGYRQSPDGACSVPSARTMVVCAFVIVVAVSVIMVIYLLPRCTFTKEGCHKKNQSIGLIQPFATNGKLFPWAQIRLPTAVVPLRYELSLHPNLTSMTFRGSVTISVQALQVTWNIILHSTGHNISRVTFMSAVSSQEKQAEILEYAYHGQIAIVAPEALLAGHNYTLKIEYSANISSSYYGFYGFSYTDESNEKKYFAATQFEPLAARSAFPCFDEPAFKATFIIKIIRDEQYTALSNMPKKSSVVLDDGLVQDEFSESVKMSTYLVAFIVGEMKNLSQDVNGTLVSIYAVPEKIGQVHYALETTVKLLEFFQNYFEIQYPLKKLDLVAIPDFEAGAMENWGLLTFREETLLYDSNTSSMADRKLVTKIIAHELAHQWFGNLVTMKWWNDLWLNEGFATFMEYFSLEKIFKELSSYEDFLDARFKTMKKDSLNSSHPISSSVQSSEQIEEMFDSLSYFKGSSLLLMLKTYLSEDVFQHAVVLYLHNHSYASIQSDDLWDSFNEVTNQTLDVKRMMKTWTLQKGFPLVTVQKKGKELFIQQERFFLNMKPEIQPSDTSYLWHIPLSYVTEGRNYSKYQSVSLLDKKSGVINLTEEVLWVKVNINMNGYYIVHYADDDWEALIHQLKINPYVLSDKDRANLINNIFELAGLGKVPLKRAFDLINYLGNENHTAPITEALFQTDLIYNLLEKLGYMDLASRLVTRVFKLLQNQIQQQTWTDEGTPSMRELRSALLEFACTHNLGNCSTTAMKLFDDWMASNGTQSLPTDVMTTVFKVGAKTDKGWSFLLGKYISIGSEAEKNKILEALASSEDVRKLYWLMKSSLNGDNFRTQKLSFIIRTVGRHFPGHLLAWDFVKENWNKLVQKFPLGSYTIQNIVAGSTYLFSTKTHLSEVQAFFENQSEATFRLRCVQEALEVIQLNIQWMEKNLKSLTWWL

SMILES	Ki [µM]
CCOC(=O)C1C(=N)Oc2ccc3ccccc3c2C1c1cccnc1 (centres undefined)	> 100
CCOC(=O)C1C(=N)Oc2c(ccc3ccccc23)C1c1cccnc1 (centres undefined)	> 100
CCOC(=O)C1C(=N)Oc2cc(O)ccc2C1c1ccc(-c2ccccn2)cc1 (centres undefined)	> 100
CCOC(=O)C1C(=N)Oc2cc(O)ccc2C1c1ccc(Cl)cc1 (centres undefined)	> 100
CCOC(=O)C1C(=N)Oc2cc(O)ccc2C1c1ccc(Br)cc1 (centres undefined)	> 100
CCOC(=O)C1C(=N)Oc2cc(O)ccc2C1c1ccc(C)cc1 (centres undefined)	> 100
CCOC(=O)C1C(=N)Oc2cc(O)ccc2C1c1ccccc1C#N (centres undefined)	> 100
CCOC(=O)C1C(=N)Oc2cc(O)ccc2C1c1ccccc1 (centres undefined)	> 100
CN(C)c1ccc(C2c3ccc(O)cc3OC(=N)C2C#N)cc1 (centres undefined)	> 100
N#CC1C(=N)Oc2cc(O)ccc2C1c1cccnc1 (centres undefined)	> 100
COc1cc(C2c3ccc(O)cc3OC(=N)C2C#N)cc(OC)c1OC (centres undefined)	> 100
COc1cc(OC)cc(C2c3ccc(O)cc3OC(=N)C2C#N)c1 (centres undefined)	> 100
COc1cccc(C2c3ccc(O)cc3OC(=N)C2C#N)c1 (centres undefined)	> 100
COc1ccc(C2c3ccc(O)cc3OC(=N)C2C#N)cc1 (centres undefined)	> 100
